Measurements reported in patent US4916122A, “3'-Azido-2',3'-dideoxyuridine anti-retroviral composition” (University of Georgia Research Foundation, Inc., priority 1987, dated 1990).
Where two headings read alike, the source gives them in different places.

Tests used:
sarcoma 180 cells = settings: in vitro; Lin et al.; cited from earlier work
HIV-1 (Strain RF-II) = assay: Antiviral activity against HIV-1 in HeLa-T4 cells (Table 4); assay type: cell-based
Procedure: Evaluation in Hela-T4 cells infected with HIV-1 (Strain RF-II)
HeLa-T4 cells (described in Cell 47: 333, 1986) are maintained in Dulbecco's Modified Eagle medium containing 10% inactivated fetal calf serum, penicillin (100 U/ml) and streptomycin (100 μg/ml), and the antibiotic G418 (1 mg/ml). The cells are seeded onto a 96-well plate (2×10^4 cells/well per 0.1 ml), and two days later, the supernatant is removed and the virus added. After adsorption for 45 minutes, the inoculum is removed and the cells washed with phosphate-buffered saline (pH 7.2). The compounds at different concentration are then added in maintenance medium (containing 2% serum). […] The cells are fixed with a mixture of 5% glacial acetic acid/95% Ethanol for 15 minutes, and then stained with Giemsa (20% in PSB) for 4 hours. The plates are then washed and dried. The foci are then enumerated with a dissecting stereomicroscope.

Sindbis virus = settings: Colla et al.; cited from earlier work
parainfluenza virus-3 = settings: Colla et al.; cited from earlier work
[1] = Effect on weight of uninfected BALB/c mice (FIG. 3); assay type: in vivo, mouse; settings: compared with each other and control
HIV-1 p24 = assay: Inhibition of HIV replication in human PBM cells, p24 RIA (Table 3)
L1210 cells = settings: in vitro; Lin et al.; Lin and Mancini; cited from earlier work
measles = settings: Colla et al.; cited from earlier work
in vitro = assay type: cell-based
Excerpt: The effect of CS-87 on colony formation of human granulocytes-macrophage precursor cells was compared with the effects of AZT and CS-85 in FIG. 1. Vero cells are very fast growing cells, and it can be seen from FIG. 2a that up to a concentration of about 400 micromolar, there is relatively little toxicity to these cells. PBM cells are somewhat more sensitive to CS-87 than the Vero cells, but these cells will still tolerate a concentration of CS-87 of up to about 200 micromolar before significant inhibition is noted (see FIG. 2b).

polio virus-1 = settings: cited from earlier work
HIV-1 (strain LAV) = assay: Inhibition of HIV replication in human PBM cells, reverse transcriptase assay (Table 3)
uninfected cells = settings: tested up to 200 μM
HIV-1 [2] = assay: microbe, parasite or virus in culture; settings: Human immunodeficiency virus 1, PBMC, read-out: PBM (EC50)
Friend (EY-10) = assay: Median effective antiviral concentration against Friend virus (Table 5); assay type: cell-based, murine retrovirus; settings: unidentified retrovirus, in Mus musculus
Excerpt: (§1) A comparison of the differences in median effective an tiviral concentrations between human, non-human primate, and murine retroviruses is shown in Table 5. […] A further comparison of the activity of several nucleoside analogues, including CS-87, against HIV-1 and SIV in human PBM cells is shown in FIG. 6. The effect of delayed treatment with AZT, CS-87 or CS-91 on the replication of HIV-1 and SIV in human PBM cells is shown in FIGS. 7a, b, and c.

[3] = tested on: liver enzymes SGPT and SGOT; assay type: in vivo, rhesus monkey; settings: rhesus monkeys, FIG. 4
in vivo [4] = assay: in vivo; parameters: species or system mouse; settings: mice, 250 mg/kg iv
Procedure: In rhesus monkeys, the pharmocokinetic parameters after an oral dose of […] of CS-87 are as follows:
^a Mice were administered the drug at a dose of 250 mg/kg iv.

in vivo [5] = assay type: in vivo, rhesus monkey; settings: rhesus monkeys, oral dose of 920 mg
Procedure: In rhesus monkeys, the pharmocokinetic parameters after an oral dose of […] of CS-87 are as follows: […]

HIV = settings: in vitro
reovirus-1 = settings: Colla et al.; cited from earlier work
[6] = tested on: two particular enzymes isolated from L1210 cells; settings: Lin et al.; cited from earlier work
SIV (SMM) = assay: Median effective antiviral concentration against SIV (Table 5); assay type: cell-based, simian immunodeficiency virus
Excerpt: as §1

Coxsackie virus B4 = settings: Colla et al.; cited from earlier work
HIV-1 [7] = tested on: HIV-1
[8] = Human immunodeficiency virus 1, PBMC, in Homo sapiens, read-out: RIA p24 % Inhibition
[9] = Human immunodeficiency virus 1, PBMC, in Homo sapiens, read-out: RT % Inhibition (corrected)

[N-]=[N+]=N[C@H]1C[C@H](n2ccc(=O)[nH]c2=O)O[C@@H]1CO [CS-87, 3'-azido-2',3'-dideoxyuridine]
activity against sarcoma 180 cells (sarcoma 180 cells): inactive | activity compared to d2C in HeLa-T4 cells (HIV-1 (Strain RF-II)): less active | EC50 (HIV-1 (Strain RF-II); Human immunodeficiency virus 1, HeLaT4, HIV-1): 1240 nM | activity against Sindbis virus (Sindbis virus): inactive | activity against parainfluenza virus-3 (parainfluenza virus-3): inactive | effect on weight of uninfected BALB/c mice [1]: no significant difference | RIA p24 (Dupont kit) (HIV-1 p24; 0.1 μM): 21.86 ng/mL | RIA p24 (Dupont kit) (HIV-1 p24; 1 μM): 11.76 ng/mL | RIA p24 (Dupont kit) (HIV-1 p24; 10 μM): 0.65 ng/mL | inhibition at 0.1 µM (HIV-1 p24; [8]): 9.2% | inhibition at 1 µM (HIV-1 p24; [8]): 51.2% | inhibition at 10 µM (HIV-1 p24; [8]): 97.3% | activity against L1210 cells (L1210 cells): inactive | activity against measles (measles): inactive | MNTC (in vitro; human, PBM cells, FIG. 2b, read-out: concentration tolerated by PBM cells before significant inhibition is noted): ~200 µM | MNTC (in vitro; monkey, Vero cells, FIG. 2a, read-out: concentration up to which there is relatively little toxicity to Vero cells): ~400 µM | activity against polio virus-1 (polio virus-1): inactive | RT: Mean DPM/ml on day 5 (3 day old cells) (HIV-1 (strain LAV); 0.1 μM): 367,934 DPM/ml | RT: Mean DPM/ml on day 5 (3 day old cells) (HIV-1 (strain LAV); 1 μM): 188,878 DPM/ml | RT: Mean DPM/ml on day 5 (3 day old cells) (HIV-1 (strain LAV); 10 μM): 12,904 DPM/ml | inhibition at 0.1 µM (HIV-1 (strain LAV); [9]): 42.3% | inhibition at 1 µM (HIV-1 (strain LAV); [9]): 70.4% | inhibition at 10 µM (HIV-1 (strain LAV); [9]): 98% | toxicity to the uninfected cells (uninfected cells): not toxic | EC50 (HIV-1 [2]): 180 nM | EC50 (Friend (EY-10)): > 10000 nM | toxicity by oral (po) vs intravenous administration [3]: less toxic than intravenous administration | Ratio: % B/S (in vivo [4]; 5 min): 6.3% | Serum levels (in vivo [4]; 5 min): 125700 ng/mL | Kp at 5 min (in vivo [4]; mouse, in vivo, iv, 250 mg/kg, 5 min, read-out: Ratio: % B/S): 0.043 | concentration at 5 min (in vivo [4]; mouse, in vivo, iv, 250 mg/kg, 5 min, read-out: Serum levels): 71300 ng/mL | concentration at 31 min (in vivo [4]; mouse, in vivo, iv, 250 mg/kg, 31 min, read-out: Brain levels): 11100 ng/mL | Kp at 31 min (in vivo [4]; mouse, in vivo, iv, 250 mg/kg, 31 min, read-out: Ratio: % B/S): 0.122 | concentration at 31 min (in vivo [4]; mouse, in vivo, iv, 250 mg/kg, 31 min, read-out: Serum levels): 91000 ng/mL | concentration at 34 min (in vivo [4]; mouse, in vivo, iv, 250 mg/kg, 34 min, read-out: Brain levels): 5670 ng/mL | Kp at 34 min (in vivo [4]; mouse, in vivo, iv, 250 mg/kg, 34 min, read-out: Ratio: % B/S): 0.102 | concentration at 34 min (in vivo [4]; mouse, in vivo, iv, 250 mg/kg, 34 min, read-out: Serum levels): 55500 ng/mL | concentration at 71 min (in vivo [4]; mouse, in vivo, iv, 250 mg/kg, 71 min, read-out: Brain levels): 6400 ng/mL | Kp at 71 min (in vivo [4]; mouse, in vivo, iv, 250 mg/kg, 71 min, read-out: Ratio: % B/S): 0.261 | concentration at 71 min (in vivo [4]; mouse, in vivo, iv, 250 mg/kg, 71 min, read-out: Serum levels): 24500 ng/mL | concentration at 1.2 h (in vivo [4]; mouse, in vivo, iv, 250 mg/kg, 72 min, read-out: Brain levels): 7330 ng/mL | Kp at 1.2 h (in vivo [4]; mouse, in vivo, iv, 250 mg/kg, 72 min, read-out: Ratio: % B/S): 0.134 | concentration at 1.2 h (in vivo [4]; mouse, in vivo, iv, 250 mg/kg, 72 min, read-out: Serum levels): 54800 ng/mL | AUC (in vivo [5]; rhesus monkey, in vivo): 113 µg·h/mL | CL/F (in vivo [5]; rhesus monkey, in vivo, read-out: clearance (converted)): 29 mL/min/kg | k el (in vivo [5]; rhesus monkey, in vivo, read-out: elimination rate constant, k (converted)): 0.000397 s⁻¹ | half-life (in vivo [5]; rhesus monkey, in vivo, read-out: elimination t1/2 k (converted)): 28.8 min | Vd/F (in vivo [5]; rhesus monkey, in vivo, read-out: volume of distribution (Vss)): 1.2 L/kg | absorption rate constant (ka) (in vivo [5]): 1.73 h⁻¹ | absorption rate t1/2 (in vivo [5]): 24 min | activity against HIV, in words (HIV): selective anti-HIV-1 activity | activity against reovirus-1 (reovirus-1): inactive | inhibitory activity towards two particular enzymes isolated from L1210 cells [6]: only marginal inhibitory activity | effectiveness against SIV (SMM) compared with Friend or mouse ecotropic virus (SIV (SMM); SIV (SMM) vs Friend (EY-10) or Cas-Br-M): much more effective | EC50 (SIV (SMM); Simian immunodeficiency virus): 200 nM | activity against Coxsackie virus B4 (Coxsackie virus B4): inactive | activity compared to d2C in PBM cells (HIV-1 [7]): less active
